From US20180113128A1, “DETECTION OF URINARY TRACT INFECTIONS” (ISI Life Sciences, Inc., priority 2016, published 2018)

Key:
Assay type in all cases: biochemical
[1] = tested on: urease; experiment: In vitro test demonstrating breakage of ester bonds (urea buffers with or without urease, 96 well); conditions: ten minutes
Excerpt: Two different fluorescein diesters were used in this example. These diesters were fluorescein dibutyrate and fluorescein dioctanoate both of which are commercially available or can be prepared by reacting fluorescein under conventional esterification techniques using as acid anhydrides, acid chlorides, etc. as described herein. The structure of fluorescein diesters is as set forth below:
A. Fluorescein dibutryate (each R is —CH2CH2CH2CH3) B. Fluorescein dioctanoate (each R is —CH2CH2CH2CH2CH2CH3) • The assay was conducted with the following: 1. Assay Buffer A: 0.5 M Urea in phosphate buffered saline, pH 7 (freshly prepared from solid urea). 2. Assay Buffer B: Assay Buffer A plus 0.05% bovine serum albumin 3. Urease: 2000 u/mL in phosphate buffered saline (PBS). This equates to about 40 mg per mL. 4. Fluorescein diesters are dissolved in water with 1% DMSO.
100 microliters of PBS, Assay Buffer A, or Assay Buffer B were added to wells of a 96 well cluster. • 10 microliters of urease were added to the indicated wells. • 5 microliters of each diester were added to each well.
The wells were monitored for ten minutes at which time a photograph was taken.

[2] = tested on: urease; experiment: Second in vitro test: pro-label in normal human urine with or without urease; conditions: room temperature, approximately 10 minutes
Experimental: In this example, fluorescein dioctanoate (a non-fluorescent derivative of fluorescein and a pro-label) was combined with normal urine recently obtained from a volunteer. The urine was divided into two containers. The first container (A) contained fluorescein dioctanoate added as a 1% solution in DMSO. The second container (B) additionally contained urease.
Both samples were maintained at room temperature for approximately 10 minutes and the samples were then evaluated for fluorescence. As is well known, the fluorescence emitted by fluorescein is typically a greenish-yellow color.

[3] = tested on: leukocyte esterases; experiment: Fourth in vitro test: pro-label contacted with blood lysate
Excerpt: Certain E. coli species are a common cause of UTIs. […] So, unlike Example 3 where E. coli was used in the absence of blood components, this example evaluates the results of whether a blood lysate would deacylate the ester bonds of pro-labels. Specifically, this example evaluates if these esterases are present in sufficient quantities in the lysate to effect transformation of the pro-labels to labels by deacylation. Accordingly, fluorescein dioctanoate (a non-fluorescent pro-label) was contacted with a blood lysate. A control composition (phosphate buffered saline) containing the same pro-label was prepared. […] The first column contains the control and the second column contains the pro-labeled solution. This figure is taken at time equal to zero. […] As before, the left column is control and the right column is the blood lysate in the presence of fluorescein dioctanoate. […] As to the greenish tinge around the control test tubes, it is postulated that this is the result of reflection from the bright green fluorescence of the adjacent tubes (not shown). Those tubes were removed from FIG. 4 so as to allow a direct comparison between the control and fluorescein dioctanoate.

[4] = Buffer A: 0.5 M urea in PBS pH 7, no urease
[5] = Buffer B: Buffer A plus 0.05% bovine serum albumin, no urease

Row | Compound | fluorescence (photograph) [1, 4] | fluorescence (photograph) ([1]; Buffer B+urease) | fluorescence (photograph) [1, 5] | fluorescein fluorescence in urine sample ([2]; normal human urine plus urease (container B)) | fluorescein fluorescence in urine sample ([2]; normal human urine, no urease (container A)) | fluorescence upon application of UV light ([3]; blood lysate, incubation for 90 minutes) | fluorescence upon application of UV light ([3]; control composition (phosphate buffered saline) containing the same pro-label, 90 minutes)
1 | CCCC(=O)Oc1ccc2c(c1)Oc1cc(OC(=O)CCC)ccc1C21OC(=O)c2ccccc21 [fluorescein dibutyrate] | no fluorescence | fluorescence | minimal fluorescence |  |  |  | 
2 | CCCCCCCC(=O)Oc1ccc2c(c1)Oc1cc(OC(=O)CCCCCCC)ccc1C21OC(=O)c2ccccc21 [fluorescein dioctanoate] | no fluorescence | fluorescence | no to substantially no fluorescence | presence of fluorescein fluorescence | lack of fluorescein fluorescence | evidenced fluorescence | did not
